From the supplement of paper PMC11061612

Experiments:
Test in all cases: combination Emax (second highest fraction inhibited in the dose matrix, 72 h); higher = more inhibition; extreme values may be limits of the assay
[1] = test system: L-1236 (Hodgkin's Lymphoma)
How it was run: (§1)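 Cell lines in DMEM/F12 or RPMI with 10% FBS were plated in 1536-well plates, held 24 hours at 37°C, 5% CO2, then given two-drug dose matrices for 72 hours (DMSO typically 0.2%). Viability was read by CellTiter-Glo 2.0 luminescence and scaled as inhibition from 0 (vehicle wells) to 1 (blank wells). Combination Emax is the second-highest inhibition in the matrix; Bliss excess is observed combination effect minus expected EA + EB − EA·EB, EA and EB being single-agent effects.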

[2] = test system: MKN45 (Gastric Carcinoma)
How it was run: as §1

SF539 (Glioblastoma) = test system: SF539 (Glioblastoma)
How it was run: as §1

[3] = test system: HEC-1 (Endometrial Carcinoma)
How it was run: as §1

[4] = test system: OVMIU (Ovarian Carcinoma)
How it was run: as §1

[5] = test system: VAL (B-Cell Non-Hodgkin's Lymphoma)
How it was run: as §1

SMILES | combination Emax [1] | combination Emax [2] | combination Emax (SF539 (Glioblastoma)) | combination Emax [3] | combination Emax [4] | combination Emax [5]
Cc1c2c(nn1C)CSCc1cc(n(C)n1)CSc1cc(c3ccccc3c1)OCCCc1c(C(=O)O)n(C)c3c-2c(Cl)ccc13 [AZD5991] + CN(C)CCCOc1ccc(-c2ccc3ncc4c(c3c2)n(C2CCOCC2)c(=O)n4C)cn1 [AZD0156] (first compound max 1 µM, 7x7, partner max 1 µM) | 0.331 | 0.356 | 0.302 | 0.195 | 0.359 | 0.657
Cc1c2c(nn1C)CSCc1cc(n(C)n1)CSc1cc(c3ccccc3c1)OCCCc1c(C(=O)O)n(C)c3c-2c(Cl)ccc13 [AZD5991] + C[C@@H]1COCCN1C2=NC(=NC(=C2)C3(CC3)[S@](=N)(=O)C)C4=C5C=CNC5=NC=C4 [AZD6738] (first compound max 1 µM, 7x7, partner max 10 µM) | 0.74 | 0.807 | 0.919 | 0.404 | 0.483 | 0.933
Cc1c2c(nn1C)CSCc1cc(n(C)n1)CSc1cc(c3ccccc3c1)OCCCc1c(C(=O)O)n(C)c3c-2c(Cl)ccc13 [AZD5991] + C[C@@H](Nc1cc(F)cc(F)c1)c1cc(C(=O)N(C)C)cc2c(=O)cc(N3CCOCC3)oc12 [AZD8186] (first compound max 1 µM, 7x7, partner max 3 µM) | 0.291 | 0.39 | 0.438 | 0.14 | 0.447 | 0.744
Cc1c2c(nn1C)CSCc1cc(n(C)n1)CSc1cc(c3ccccc3c1)OCCCc1c(C(=O)O)n(C)c3c-2c(Cl)ccc13 [AZD5991] + Cc1cc2ncnn2cc1Nc1ncc2c(n1)n(C1CCOCC1)c(=O)n2C [AZD7648] (first compound max 1 µM, 7x7, partner max 10 µM) | 0.426 | 0.504 | 0.41 | 0.18 | 0.547 | 0.744
Cc1c2c(nn1C)CSCc1cc(n(C)n1)CSc1cc(c3ccccc3c1)OCCCc1c(C(=O)O)n(C)c3c-2c(Cl)ccc13 [AZD5991] + Cn1cnc2c(F)c(Nc3ccc(Br)cc3Cl)c(C(=O)NOCCO)cc21 [Selumetinib] (first compound max 1 µM, 7x7, partner max 3 µM) | 0.297 | 0.508 | 0.427 | 0.143 | 0.383 | 0.724
C[C@@H]1COCCN1c1cc(C2([S@](C)(=N)=O)CC2)nc(-c2ccnc3[nH]ccc23)n1 [AZD6738] + O=C(c1cc(Cc2n[nH]c(=O)c3ccccc23)ccc1F)N1CCN(C(=O)C2CC2)CC1 [Olaparib] (first compound max 10 µM, 7x7, partner max 10 µM) | 0.583 | 0.763 | 0.935 | 0.143 | 0.429 | 0.909
Cc1cc2ncnn2cc1Nc1ncc2c(n1)n(C1CCOCC1)c(=O)n2C [AZD7648] + C=CCn1c(=O)c2cnc(Nc3ccc(N4CCN(C)CC4)cc3)nc2n1-c1cccc(C(C)(C)O)n1 [AZD1775] (first compound max 10 µM, partner max 1 µM) | 0.767 | 0.804 | 0.998 | 0.137 | 0.635 | 0.864
Cc1cc2ncnn2cc1Nc1ncc2c(n1)n(C1CCOCC1)c(=O)n2C [AZD7648] + CCN(CCO)CCCOc1ccc2c(Nc3cc(CC(=O)Nc4cccc(F)c4)[nH]n3)ncnc2c1 [AZD2811] (first compound max 10 µM, 7x7, partner max 1 µM) | 0.384 | 0.446 | 0.462 | 0 | 0.444 | 0.798
Cc1cc2ncnn2cc1Nc1ncc2c(n1)n(C1CCOCC1)c(=O)n2C [AZD7648] + CN(C)CCCOc1ccc(-c2ccc3ncc4c(c3c2)n(C2CCOCC2)c(=O)n4C)cn1 [AZD0156] (first compound max 10 µM, 7x7, partner max 1 µM) | 0.306 | 0.428 | 0.352 | 0.002 | 0.474 | 0.53
Cc1cc2ncnn2cc1Nc1ncc2c(n1)n(C1CCOCC1)c(=O)n2C [AZD7648] + C[C@@H]1COCCN1C2=NC(=NC(=C2)C3(CC3)[S@](=N)(=O)C)C4=C5C=CNC5=NC=C4 [AZD6738] (first compound max 10 µM, 7x7, partner max 10 µM) | 0.689 | 0.793 | 0.85 | 0.423 | 0.528 | 0.918
Cc1cc2ncnn2cc1Nc1ncc2c(n1)n(C1CCOCC1)c(=O)n2C [AZD7648] + O=C(c1cc(Cc2n[nH]c(=O)c3ccccc23)ccc1F)N1CCN(C(=O)C2CC2)CC1 [Olaparib] (first compound max 10 µM, 7x7, partner max 10 µM) | 0.238 | 0.264 | 0.406 | 0.114 | 0.306 | 0.601
COc1cccc2c1C(=O)c1c(O)c3c(c(O)c1C2=O)C[C@@](O)(C(=O)CO)C[C@@H]3O[C@H]1C[C@H](N)[C@H](O)[C@H](C)O1 [Doxorubicin] + Cc1cc2ncnn2cc1Nc1ncc2c(n1)n(C1CCOCC1)c(=O)n2C [AZD7648] (first compound max 1 µM, 7x7, partner max 10 µM) | 0.682 | 0.821 | 0.934 | 0.367 | 0.861 | 1
COc1cccc(OCCCN)c1-c1cc(Nc2cnc(C#N)cn2)n[nH]1 [Prexasertib] + C=CCn1c(=O)c2cnc(Nc3ccc(N4CCN(C)CC4)cc3)nc2n1-c1cccc(C(C)(C)O)n1 [AZD1775] (first compound max 1 µM, partner max 1 µM) | 0.786 | 0.865 | 1 | 0.715 | 0.814 | 0.921
COc1cccc(OCCCN)c1-c1cc(Nc2cnc(C#N)cn2)n[nH]1 [Prexasertib] + CCc1c2c(nc3ccc(O)cc13)-c1cc3c(c(=O)n1C2)COC(=O)[C@]3(O)CC [SN-38] (first compound max 1 µM, 7x7, partner max 0.3 µM) | 0.883 | 0.853 | 1 | 0.894 | 0.571 | 0.961
COc1cccc(OCCCN)c1-c1cc(Nc2cnc(C#N)cn2)n[nH]1 [Prexasertib] + CN(C)CCCOc1ccc(-c2ccc3ncc4c(c3c2)n(C2CCOCC2)c(=O)n4C)cn1 [AZD0156] (first compound max 1 µM, 7x7, partner max 1 µM) | 0.792 | 0.836 | 0.963 | 0.655 | 0.684 | 0.924
COc1cccc(OCCCN)c1-c1cc(Nc2cnc(C#N)cn2)n[nH]1 [Prexasertib] + C[C@@H]1COCCN1C2=NC(=NC(=C2)C3(CC3)[S@](=N)(=O)C)C4=C5C=CNC5=NC=C4 [AZD6738] (first compound max 1 µM, 7x7, partner max 10 µM) | 0.799 | 0.822 | 0.972 | 0.74 | 0.596 | 0.952
COc1cccc(OCCCN)c1-c1cc(Nc2cnc(C#N)cn2)n[nH]1 [Prexasertib] + Cc1cc2ncnn2cc1Nc1ncc2c(n1)n(C1CCOCC1)c(=O)n2C [AZD7648] (first compound max 1 µM, 7x7, partner max 10 µM) | 0.776 | 0.811 | 0.985 | 0.53 | 0.624 | 0.932
COc1cccc(OCCCN)c1-c1cc(Nc2cnc(C#N)cn2)n[nH]1 [Prexasertib] + O=C(c1cc(Cc2n[nH]c(=O)c3ccccc23)ccc1F)N1CCN(C(=O)C2CC2)CC1 [Olaparib] (first compound max 1 µM, 7x7, partner max 10 µM) | 0.831 | 0.854 | 1 | 0.416 | 0.592 | 0.93
COc1cc2c(cc1OCCCCCOc1cc3c(cc1OC)C(=O)N1C=C(C)C[C@H]1C=N3)N=C[C@@H]1CC(C)=CN1C2=O [SG3199] + O=C(c1cc(Cc2n[nH]c(=O)c3ccccc23)ccc1F)N1CCN(C(=O)C2CC2)CC1 [Olaparib] (first compound max 0.001 µM, 7x7, partner max 10 µM) | 0.196 | 0.0741 | 0.268 | 0.176 | 0.0896 | 0.57
CCc1c2c(nc3ccc(O)cc13)-c1cc3c(c(=O)n1C2)COC(=O)[C@]3(O)CC [SN-38] + CN(C)CCCOc1ccc(-c2ccc3ncc4c(c3c2)n(C2CCOCC2)c(=O)n4C)cn1 [AZD0156] (first compound max 0.3 µM, 7x7, partner max 1 µM) | 0.76 | 0.815 | 0.895 | 0.398 | 0.32 | 0.944
